Data from PubChem BioAssay AID652006 (Sanford-Burnham Center for Chemical Genomics, 2013).
Active and inactive are the calls of the source.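 How the source made its calls: active means compounds that inhibit the LYP-1 phosphatase with IC50 at or below 20 µM; inactive means the rest.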

Molecular target: Tyrosine-protein phosphatase non-receptor type 22 (Homo sapiens) (UniProt Q9Y2R2)
Test: LYP phosphatase inhibition for selectivity, dose response, selectivity assay for LMPTP inhibitor project, biochemical, fluorescence, LYP catalytic domain (AID 652006)
Conditions: His-LYP catalytic domain, OMFP fluorescence, 50 min

Sequence of Tyrosine-protein phosphatase non-receptor type 22 (Homo sapiens) (Q9Y2R2 whole entry, looked up, the tested form may be a part): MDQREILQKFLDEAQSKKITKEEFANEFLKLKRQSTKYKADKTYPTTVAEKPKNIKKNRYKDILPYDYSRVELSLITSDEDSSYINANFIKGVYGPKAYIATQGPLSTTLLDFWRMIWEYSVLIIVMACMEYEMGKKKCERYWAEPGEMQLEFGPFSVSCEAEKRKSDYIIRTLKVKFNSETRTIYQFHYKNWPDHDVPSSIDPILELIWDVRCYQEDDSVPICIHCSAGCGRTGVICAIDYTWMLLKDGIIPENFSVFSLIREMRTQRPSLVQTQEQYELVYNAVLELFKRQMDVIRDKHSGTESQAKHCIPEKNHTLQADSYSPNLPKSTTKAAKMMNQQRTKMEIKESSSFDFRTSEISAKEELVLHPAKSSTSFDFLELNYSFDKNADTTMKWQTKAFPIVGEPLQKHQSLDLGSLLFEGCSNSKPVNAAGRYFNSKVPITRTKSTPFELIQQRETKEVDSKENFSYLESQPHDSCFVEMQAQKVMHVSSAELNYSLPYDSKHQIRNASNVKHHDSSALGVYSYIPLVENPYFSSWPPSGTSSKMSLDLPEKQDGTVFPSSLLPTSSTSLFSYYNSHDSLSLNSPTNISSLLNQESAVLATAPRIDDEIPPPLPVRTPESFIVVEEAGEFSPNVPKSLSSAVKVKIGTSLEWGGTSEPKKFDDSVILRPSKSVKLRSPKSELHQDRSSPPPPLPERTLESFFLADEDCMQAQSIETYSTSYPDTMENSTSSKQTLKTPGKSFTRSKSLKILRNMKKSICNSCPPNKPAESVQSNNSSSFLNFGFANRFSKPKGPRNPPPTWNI

IC50: > 80 µM (inactive)
Compound: Clc1cccc(Cl)c1Cn1cnc(=NCc2ccco2)c2[nH]cnc21
